The subject of series [1] is NIH3T3. Nature of the series: Antiproliferative activity against mouse NIH3T3/TRP-Met cells assessed as reduction in cell growth incubated for 72 hrs by SRB assay. Particulars: NIH3T3, 72 h.
In series [2] the test system is SNU1. Briefly: Antiproliferative activity against human SNU1 cells assessed as reduction in cell viability incubated for 72 hrs by SRB assay. Particulars: SNU1, 72 h. On the technique in general: The SRB assay estimates cell density from bound dye.
Series [3] in a line: Antiproliferative activity against mouse BaF3/TRP-Met cells assessed as reduction in cell growth incubated for 72 hrs by SRB assay. Particulars: BaF3, 72 h.
For series [4], the system named is NCI-H661. Briefly: Antiproliferative activity against human NCI-H661 cells assessed as reduction in cell viability incubated for 72 hrs by SRB assay. Particulars: NCI-H661, 72 h.
The test system of series [5] is NIH3T3. Nature of the series: Antiproliferative activity against mouse NIH3T3 cells assessed as reduction in cell growth incubated for 72 hrs by SRB assay. Particulars: NIH3T3, 72 h.
Series [6] is described as follows: Antiproliferative activity against mouse BaF3/[…] cells assessed as reduction in cell viability incubated for 72 hrs by Cell-titer glo reagent based assay. Format: functional. Particulars: BaF3, 72 h.
Series [7] deals with ALK tyrosine kinase receptor (Homo sapiens, UniProt Q9UM73). Nature of the series: Inhibition of ALK (unknown origin).
For series [8], the target named is T1, Hepatocyte growth factor receptor (Homo sapiens, UniProt P08581). Nature of the series: Inhibition of c-MET (unknown origin) incubated for 30 mins by ELISA method. (ELISA stands for enzyme-linked immunosorbent assay.)
Series [9] concerns the target Proto-oncogene tyrosine-protein kinase receptor Ret (Homo sapiens, UniProt P07949). Nature of the series: Inhibition of RET (unknown origin).
Series [10] addresses Epidermal growth factor receptor (Homo sapiens, UniProt P00533). Nature of the series: Inhibition of EGFR (unknown origin).
Series [11] has as its target T2, CYP3A4 (Homo sapiens, UniProt P08684). Briefly: Inhibition of CYP3A4 in human liver microsomes. The class given is ADME, Microsome. (Liver microsomes are vesicles of endoplasmic reticulum, rich in cytochrome P450 enzymes.)
Series [12] addresses T2, CYP3A4. Briefly: Inhibition of CYP3A4 (unknown origin). The class given is ADME.
In series [13] the target is Cytochrome P450 3A4 (Homo sapiens, UniProt P08684). Nature of the series: Inhibition of CYP3A4 in human liver microsome assessed as fold change. The class given is ADME. Particulars: microsomes.
For series [14], the system named is HepG2. Nature of the series: Antiproliferative activity against human HepG2 cells assessed as reduction in cell viability incubated for 72 hrs by MTT assay. Format: functional, cell-based. Particulars: HepG2, 72 h.
Series [15] deals with T1, Hepatocyte growth factor receptor. Briefly: Inhibition of c-MET (unknown origin) using poly (Glu,Tyr) 4:1 as substrate incubated for 30 mins by ADP-Glo reagent based analysis.
The nature of series [16]: Water solubility of compound at pH 7 incubated for 2 hrs by HPLC analysis. The class given is physicochemical.
For series [17], the system named is EBC-1. Briefly: Antiproliferative activity against human EBC-1 cells assessed as reduction in cell viability incubated for 72 hrs by Cell-titer glo luminescent assay. The class given is functional, cell-based. Particulars: EBC-1, 72 h.
Series [18] relates to MKN-45. Nature of the series: Antiproliferative activity against human MKN-45 cells assessed as reduction in cell viability incubated for 72 hrs by Cell-titer glo luminescent assay. Particulars: MKN-45, 72 h. The class given is functional, cell-based.
Series [19] concerns the target T1, Hepatocyte growth factor receptor. Briefly: Inhibition of c-Met (unknown origin).

Structures are written as SMILES. Values after ≈ are worked out from the molar mass of the structure shown.

T1 sequence (P08581 whole entry): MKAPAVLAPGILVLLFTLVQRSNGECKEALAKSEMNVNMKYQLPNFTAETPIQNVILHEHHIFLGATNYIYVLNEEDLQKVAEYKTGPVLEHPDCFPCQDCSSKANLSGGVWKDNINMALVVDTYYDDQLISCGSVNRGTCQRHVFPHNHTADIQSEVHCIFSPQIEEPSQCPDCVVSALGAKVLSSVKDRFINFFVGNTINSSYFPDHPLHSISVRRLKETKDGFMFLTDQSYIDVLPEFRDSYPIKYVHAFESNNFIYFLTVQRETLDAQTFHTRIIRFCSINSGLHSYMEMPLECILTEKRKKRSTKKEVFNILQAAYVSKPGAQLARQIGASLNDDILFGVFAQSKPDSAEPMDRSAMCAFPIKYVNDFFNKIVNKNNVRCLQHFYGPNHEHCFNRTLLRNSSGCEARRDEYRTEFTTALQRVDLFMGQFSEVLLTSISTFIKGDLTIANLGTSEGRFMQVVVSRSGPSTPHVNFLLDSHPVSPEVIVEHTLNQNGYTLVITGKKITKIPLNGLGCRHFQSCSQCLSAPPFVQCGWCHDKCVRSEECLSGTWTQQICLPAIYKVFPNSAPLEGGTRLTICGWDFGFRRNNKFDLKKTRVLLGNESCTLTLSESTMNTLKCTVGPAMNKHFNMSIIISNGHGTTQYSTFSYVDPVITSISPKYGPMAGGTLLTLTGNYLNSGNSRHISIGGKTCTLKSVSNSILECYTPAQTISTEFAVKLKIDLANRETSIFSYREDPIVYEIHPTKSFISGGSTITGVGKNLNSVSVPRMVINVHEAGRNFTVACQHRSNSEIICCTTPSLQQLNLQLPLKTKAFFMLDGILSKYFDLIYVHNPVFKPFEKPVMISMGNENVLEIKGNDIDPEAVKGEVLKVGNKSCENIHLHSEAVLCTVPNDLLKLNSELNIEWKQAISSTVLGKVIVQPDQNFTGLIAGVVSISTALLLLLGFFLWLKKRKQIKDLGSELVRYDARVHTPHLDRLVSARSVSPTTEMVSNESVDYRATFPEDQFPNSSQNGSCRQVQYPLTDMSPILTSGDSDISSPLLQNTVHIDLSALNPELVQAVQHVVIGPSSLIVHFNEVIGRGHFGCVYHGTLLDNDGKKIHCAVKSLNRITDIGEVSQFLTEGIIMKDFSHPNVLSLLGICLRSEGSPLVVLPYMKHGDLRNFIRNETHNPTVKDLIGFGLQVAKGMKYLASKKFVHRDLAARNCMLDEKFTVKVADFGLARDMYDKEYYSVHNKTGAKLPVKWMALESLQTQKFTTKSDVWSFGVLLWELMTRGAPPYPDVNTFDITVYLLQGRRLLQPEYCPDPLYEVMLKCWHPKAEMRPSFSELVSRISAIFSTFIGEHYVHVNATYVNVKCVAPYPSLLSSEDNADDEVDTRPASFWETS
Chain of ALK tyrosine kinase receptor (Q9UM73 whole entry): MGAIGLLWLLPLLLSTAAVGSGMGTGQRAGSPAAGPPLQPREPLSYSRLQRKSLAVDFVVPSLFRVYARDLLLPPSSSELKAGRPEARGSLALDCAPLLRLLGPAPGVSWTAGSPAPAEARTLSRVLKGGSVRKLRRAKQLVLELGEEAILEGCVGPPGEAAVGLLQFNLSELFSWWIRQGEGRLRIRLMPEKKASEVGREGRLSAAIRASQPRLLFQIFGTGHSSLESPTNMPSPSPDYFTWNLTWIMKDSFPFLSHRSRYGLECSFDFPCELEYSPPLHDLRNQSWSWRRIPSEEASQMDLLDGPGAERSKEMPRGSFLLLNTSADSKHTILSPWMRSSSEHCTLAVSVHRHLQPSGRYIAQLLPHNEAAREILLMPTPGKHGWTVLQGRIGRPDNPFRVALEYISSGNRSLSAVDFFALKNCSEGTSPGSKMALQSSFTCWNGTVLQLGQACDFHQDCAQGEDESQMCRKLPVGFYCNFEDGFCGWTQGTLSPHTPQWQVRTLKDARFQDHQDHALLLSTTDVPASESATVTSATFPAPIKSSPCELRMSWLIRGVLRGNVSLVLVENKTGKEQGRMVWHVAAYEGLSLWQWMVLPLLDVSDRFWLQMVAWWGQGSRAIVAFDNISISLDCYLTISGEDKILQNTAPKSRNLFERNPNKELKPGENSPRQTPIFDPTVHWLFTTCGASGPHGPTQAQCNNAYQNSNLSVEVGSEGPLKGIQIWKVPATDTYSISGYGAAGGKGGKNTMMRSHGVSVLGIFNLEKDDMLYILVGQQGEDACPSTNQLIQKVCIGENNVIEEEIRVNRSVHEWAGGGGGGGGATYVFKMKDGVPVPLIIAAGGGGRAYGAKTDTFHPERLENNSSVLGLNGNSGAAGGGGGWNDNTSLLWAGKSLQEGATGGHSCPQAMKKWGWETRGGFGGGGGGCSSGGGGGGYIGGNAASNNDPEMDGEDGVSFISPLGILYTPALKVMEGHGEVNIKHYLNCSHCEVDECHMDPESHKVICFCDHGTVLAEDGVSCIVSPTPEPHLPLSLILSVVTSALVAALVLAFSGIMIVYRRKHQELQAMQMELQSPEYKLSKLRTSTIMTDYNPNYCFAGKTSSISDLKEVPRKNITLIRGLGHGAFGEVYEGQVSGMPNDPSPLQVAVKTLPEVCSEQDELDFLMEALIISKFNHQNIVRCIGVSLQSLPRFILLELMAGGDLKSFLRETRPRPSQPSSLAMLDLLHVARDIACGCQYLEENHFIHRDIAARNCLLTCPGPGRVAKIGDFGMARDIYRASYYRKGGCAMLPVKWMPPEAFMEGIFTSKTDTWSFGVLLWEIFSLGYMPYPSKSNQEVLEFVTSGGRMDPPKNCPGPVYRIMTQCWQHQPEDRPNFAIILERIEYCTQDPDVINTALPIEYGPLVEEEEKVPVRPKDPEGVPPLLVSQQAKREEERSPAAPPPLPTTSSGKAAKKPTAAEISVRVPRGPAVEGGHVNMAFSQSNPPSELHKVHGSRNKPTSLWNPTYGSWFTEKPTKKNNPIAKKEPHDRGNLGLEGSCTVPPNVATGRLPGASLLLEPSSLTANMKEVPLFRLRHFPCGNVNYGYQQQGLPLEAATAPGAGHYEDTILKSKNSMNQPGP
Chain of Epidermal growth factor receptor (P00533 whole entry): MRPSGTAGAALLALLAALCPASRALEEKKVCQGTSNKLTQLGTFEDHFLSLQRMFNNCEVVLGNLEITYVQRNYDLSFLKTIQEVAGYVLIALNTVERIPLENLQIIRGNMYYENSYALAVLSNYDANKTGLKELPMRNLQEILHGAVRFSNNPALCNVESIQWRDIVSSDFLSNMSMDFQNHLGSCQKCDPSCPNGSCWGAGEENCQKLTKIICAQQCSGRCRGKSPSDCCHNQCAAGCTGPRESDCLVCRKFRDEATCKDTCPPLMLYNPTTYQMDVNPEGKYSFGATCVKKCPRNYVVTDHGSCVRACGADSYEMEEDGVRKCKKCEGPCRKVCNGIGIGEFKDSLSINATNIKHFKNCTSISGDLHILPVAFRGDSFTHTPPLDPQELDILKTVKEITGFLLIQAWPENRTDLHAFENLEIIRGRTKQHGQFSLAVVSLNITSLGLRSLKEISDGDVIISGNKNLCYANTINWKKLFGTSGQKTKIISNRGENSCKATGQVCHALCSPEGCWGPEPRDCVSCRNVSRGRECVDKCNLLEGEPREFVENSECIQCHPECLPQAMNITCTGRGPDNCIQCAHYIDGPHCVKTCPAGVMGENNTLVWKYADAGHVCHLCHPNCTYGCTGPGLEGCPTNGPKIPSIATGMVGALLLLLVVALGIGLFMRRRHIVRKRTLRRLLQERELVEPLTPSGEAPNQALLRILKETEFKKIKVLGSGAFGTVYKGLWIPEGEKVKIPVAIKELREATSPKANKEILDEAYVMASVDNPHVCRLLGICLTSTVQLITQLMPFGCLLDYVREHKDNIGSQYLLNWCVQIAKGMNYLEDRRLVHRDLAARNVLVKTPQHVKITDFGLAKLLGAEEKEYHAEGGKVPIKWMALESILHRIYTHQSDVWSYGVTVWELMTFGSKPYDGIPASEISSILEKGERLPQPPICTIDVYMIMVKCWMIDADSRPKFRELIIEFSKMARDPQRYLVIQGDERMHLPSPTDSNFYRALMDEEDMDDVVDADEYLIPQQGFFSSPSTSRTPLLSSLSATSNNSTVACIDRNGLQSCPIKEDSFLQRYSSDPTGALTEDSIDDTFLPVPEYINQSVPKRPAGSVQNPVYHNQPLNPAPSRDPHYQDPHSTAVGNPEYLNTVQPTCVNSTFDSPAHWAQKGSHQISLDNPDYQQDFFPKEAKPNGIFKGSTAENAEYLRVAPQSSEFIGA
Chain of Cytochrome P450 3A4 (P08684 whole entry): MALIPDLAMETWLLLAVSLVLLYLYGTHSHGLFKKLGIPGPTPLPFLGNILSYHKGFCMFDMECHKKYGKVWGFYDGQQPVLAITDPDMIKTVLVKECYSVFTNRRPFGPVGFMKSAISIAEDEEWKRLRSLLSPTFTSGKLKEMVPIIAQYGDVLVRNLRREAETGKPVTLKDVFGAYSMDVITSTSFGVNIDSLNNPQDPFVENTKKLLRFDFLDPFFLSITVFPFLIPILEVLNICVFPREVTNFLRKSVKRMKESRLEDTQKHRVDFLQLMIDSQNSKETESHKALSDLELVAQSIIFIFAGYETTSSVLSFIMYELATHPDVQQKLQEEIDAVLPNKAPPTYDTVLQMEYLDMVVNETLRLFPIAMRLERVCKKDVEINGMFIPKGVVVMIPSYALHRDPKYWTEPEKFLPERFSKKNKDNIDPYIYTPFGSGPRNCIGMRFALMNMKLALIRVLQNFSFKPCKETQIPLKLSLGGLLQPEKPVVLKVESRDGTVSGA
T2 sequence (P08684 whole entry): as above

As usually defined, the IC50 is the concentration needed to halve the response being measured. As to `COc1ccc2c(OCc3nnc4ncc(-c5ccccc5)nn34)ccnc2c1`, the concentration for half-maximal inhibition (IC50) was 0.0795 µM in series [1]; > 50 µM in series [2]; 0.0237 µM in series [3]; > 50 µM in series [4]; > 50 µM in series [5].

On to `Clc1ccc(-c2cn3cccc(COc4nnc5ccc(Cl)nn45)c3n2)c(Cl)c1`, for which the 50% inhibitory concentration (IC50) was determined as 0.271 µM in series [6]; 13.5 µM in [7]; 0.062 µM in [8]; 12.3 µM in [9]; 15.6 µM in series [10].

In the case of `COc1ccc2c(NCc3nnc4ccc(-c5ccccc5)nn34)ccnc2c1`, the IC50 in series [11] and in series [12] was > 50 µM in each case. In addition, in series [13], the “fold change (FC)” value is listed as > 1.

For `COc1ccc2c(SCc3nnc4ccc(-c5ccccc5)nn34)ccnc2c1`, the “fold change (FC)” value in [13] is reported as 0.64.

Turning to `Cc1ccc(-c2cnc3nnc(SCc4ccncc4)n3n2)cc1`, the IC50 in series [14] was 0.74 µM; in series [15], 0.0046 µM.

Regarding `Brc1ccc(-c2cnc3nnc(SCc4cccnc4)n3n2)cc1`, the half-maximal inhibitory concentration (IC50) came to 0.71 µM in series [14] and 0.0064 µM in [15].

As a reminder, the solubility is how much of the substance goes into solution per volume. Low values mean little dissolved substance, high ones much dissolved substance. For the compound `Oc1ccc(-c2cnc3nnc(SCc4ccncc4)n3n2)cc1`, in series [16], the concentration in solution (solubility at 2 h) was 3.6 µg/mL (≈ 10.7 µM).

Consider `Cc1[nH]c2ncc(-c3cnn(C4CCNCC4)c3)cc2c1C(C)c1c(Cl)ccc(F)c1Cl` (centres undefined), for which the results for the concentration for half-maximal inhibition (IC50) in [17] and in series [18] were 2.38 µM and 1.98 µM, respectively.

`Cc1ccc(-c2cnc3nnc(SCc4cccnc4)n3n2)cc1`: the IC50 turned out to be 1.02 µM in [14] and 0.0056 µM in series [15].

For the compound `CC(c1c(Cl)ccc(F)c1Cl)c1c(Cl)[nH]c2ncc(-c3cnn(C4CCNCC4)c3)cc12` (centres undefined), the 50% inhibitory concentration (IC50) in series [17] was determined as 9.21 µM; in series [18], 6.52 µM.

As for `Oc1ccc(-c2cnc3nnc(NCc4ccncc4)n3n2)cc1`, in series [16], the solubility at 2 h was found to be 203 µg/mL (≈ 636 µM). The half-inhibitory concentration (IC50) in series [14] was 3.06 µM; in series [15] it was 0.052 µM.

As to `Clc1ccc(Cl)c(-c2cn3cccc(COc4nnc5ccc(Cl)nn45)c3n2)c1`, the concentration for half-maximal inhibition (IC50) in series [6] came to 0.253 µM; in series [7], 11.3 µM; in series [8] it was 0.053 µM; in series [9], 12.2 µM; in [10], 14.2 µM.

Take `COc1ccc2c(OCc3nnc4ccc(-c5ccccc5)nn34)ccnc2c1` [AMG-208]: in [19], the concentration for half-maximal inhibition (IC50) stood at 0.0044 µM.
